Broadly, the IC50 is the midpoint of a concentration-inhibition curve. Low readings indicate inhibition by little substance, high ones a need for much substance.

One assay has as its target T1, Tyrosine-protein phosphatase non-receptor type 5 (Homo sapiens, UniProt P54829).
T1 sequence (P54829 whole entry): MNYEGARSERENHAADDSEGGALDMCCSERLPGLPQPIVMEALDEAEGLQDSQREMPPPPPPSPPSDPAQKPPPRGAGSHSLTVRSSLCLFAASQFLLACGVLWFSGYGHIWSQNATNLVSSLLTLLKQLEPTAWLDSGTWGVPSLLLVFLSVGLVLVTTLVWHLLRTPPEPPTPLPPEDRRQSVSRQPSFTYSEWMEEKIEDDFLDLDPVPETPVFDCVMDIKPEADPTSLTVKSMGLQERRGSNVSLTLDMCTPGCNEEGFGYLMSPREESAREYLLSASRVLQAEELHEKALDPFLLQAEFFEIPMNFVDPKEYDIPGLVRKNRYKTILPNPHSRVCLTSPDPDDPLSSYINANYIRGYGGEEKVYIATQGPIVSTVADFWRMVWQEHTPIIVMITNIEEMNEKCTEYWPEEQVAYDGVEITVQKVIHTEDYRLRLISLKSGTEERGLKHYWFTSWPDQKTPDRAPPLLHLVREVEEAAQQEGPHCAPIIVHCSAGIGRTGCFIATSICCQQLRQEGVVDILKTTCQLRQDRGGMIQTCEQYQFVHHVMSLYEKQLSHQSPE
Description: STEP phosphatase inhibitor potency, dose response, orthogonal assay for STEP inhibitor project, biochemical, colorimetric absorbance (AID 624207).
Conditions: not given
In turn, `Nc1ccc2c(O)cc(S(=O)(=O)O)cc2c1` had a half-inhibitory concentration (IC50) greater than 80 µM. Still for that read-out and setting: in the case of `S=C1N=C(C23CC4CC(CC(C4)C2)C3)CC(c2ccc3c(c2)OCO3)N1` (stereo not drawn) it was greater than 80 µM. On the same count and under the same terms, in the case of `CCc1ccc(NC(=O)Cc2cn(C)c3ccccc23)cc1` it was greater than 80 µM; in that of `Cc1ccc(-c2nc3ncccc3o2)cc1NC(=O)CC(C)C`, greater than 80 µM. Regarding `O=C(N/N=C/c1ccncc1)c1cccc(S(=O)(=O)Nc2ccc(Cl)cc2)c1`, inhibition was half-maximal at 19.7 µM (IC50). The same measure, in the same setting: the same measure for `COc1cc(NC(=S)N2CCN(C)CC2)c(OC)cc1Cl`: greater than 80 µM; for `CC(=O)N1CCC(N(CCN2CCOCC2)C(=S)Nc2ccc(C)cc2)CC1`: greater than 80 µM. For the compound `COc1ccc(NC(=O)c2cc(=O)c3ccccc3o2)cc1Cl`, the IC50 was greater than 80 µM. On the same count and under the same terms, the same measure for `O=C1NN(c2cccc(Br)c2)C(=O)/C1=C\c1ccc(N2CCOCC2)cc1`: greater than 80 µM; for `Cc1ccc(S(=O)(=O)c2cnc3ccc(Cl)cc3c2O)cc1`: greater than 80 µM; for `O=C(C=Cc1ccc(Cl)cc1)NC(=S)Nc1ccc(C(=O)O)cc1`: greater than 80 µM. The same measure, in the same setting: the same measure for `CC(/N=N/c1ccc(S(N)(=O)=O)cc1[N+](=O)[O-])c1cccs1` (stereo not drawn): greater than 80 µM. The same measure, in the same setting: the same measure for `CC(=O)c1ccc(S(=O)(=O)Nc2cccc(-n3cnnn3)c2)cc1`: greater than 80 µM; for `NN=C1C(Cl)=C(Cl)C(Cl)=C1Cl`: greater than 80 µM. `Cc1ccc(S(=O)(=O)N2CCCCC2)cc1NC(=O)c1ccc(=O)[nH]c1` showed an IC50 greater than 80 µM. The same measure, in the same setting: in the case of `COc1ccc(NC(S)=NCCN2CCC(C)CC2)cc1Cl` [1-(3-chloro-4-methoxyphenyl)-3-[2-(4-methyl-1-piperidinyl)ethyl]thiourea] it was 18.2 µM. Same read-out and setting: the same measure for `COCCCN(C(S)=Nc1c(C)cc(C)cc1C)C(C)c1ccccn1` (stereo not drawn) [1-(3-methoxypropyl)-1-[1-(2-pyridinyl)ethyl]-3-(2,4,6-trimethylphenyl)thiourea]: greater than 80 µM. The same measure, in the same setting: the same measure for `CC(C)OCCCN=C(S)Nc1ccc(S(N)(=O)=O)cc1` [1-(3-propan-2-yloxypropyl)-3-(4-sulfamoylphenyl)thiourea]: greater than 80 µM; for `Cc1cc(C)c(NC(S)=NCC2CCN(C(C)c3ccccc3)C2)c(C)c1` (stereo not drawn) [1-[[1-(1-phenylethyl)-3-pyrrolidinyl]methyl]-3-(2,4,6-trimethylphenyl)thiourea]: 12.1 µM; for `Cc1c(C)n(C(=O)CSc2nc3ccccc3[nH]2)c2ccccc12` [2-(1H-benzimidazol-2-ylthio)-1-(2,3-dimethyl-1-indolyl)ethanone]: greater than 80 µM. `CCOc1cc(CN=Nc2nc(O)c(CC(=O)O)s2)ccc1OCc1ccc(Cl)cc1Cl` [2-[2-[(N''E)-N''-[4-(2,4-dichlorobenzyl)oxy-3-ethoxy-benzylidene]hydrazino]-4-keto-2-thiazolin-5-yl]acetic acid] came in with an IC50 greater than 80 µM.

As for `O=C(O)c1ccc2c(c1)C(=O)N(c1cccc(-c3nc4ccccc4s3)c1)C2=O` [2-[3-(1,3-benzothiazol-2-yl)phenyl]-1,3-bis(oxidanylidene)isoindole-5-carboxylic acid], the IC50 is greater than 80 µM. Still for that read-out and setting: the same measure for `CCN1CCN(C(=S)c2ccc(OCC(=O)NCc3ccccc3)cc2)CC1` [2-[4-(4-ethylpiperazin-1-yl)carbothioylphenoxy]-N-(phenylmethyl)ethanamide]: greater than 80 µM; for `CCc1ccc(NC2=NC(=O)C(=Cc3ccc(OCC(=O)O)cc3)S2)cc1` [2-[4-[(Z)-[2-(4-ethylanilino)-4-oxo-5-thiazolylidene]methyl]phenoxy]acetic acid]: 37.1 µM; for `Cc1cccc(Nc2nn3c(=O)c4ccccc4nc3s2)c1` [2-[(3-methylphenyl)amino]-5H-[1,3,4]thiadiazolo[2,3-b]quinazolin-5-one]: 8.34 µM. The same measure, in the same setting: in the case of `Cc1ccc(-c2nc(NC(=O)CSc3cc(C)c4ccccc4n3)ns2)cc1` [2-[(4-methyl-2-quinolyl)thio]-N-[5-(p-tolyl)-1,2,4-thiadiazol-3-yl]acetamide] it was greater than 80 µM; in that of `COc1cc(/C=C2/SC(=S)N(CC(=O)O)C2=O)ccc1OCC(=O)Nc1ccc(C)c(C)c1` [2-[(5E)-5-[[4-[2-[(3,4-dimethylphenyl)amino]-2-oxidanylidene-ethoxy]-3-methoxy-phenyl]methylidene]-4-oxidanylidene-2-sulfanylidene-1,3-thiazolidin-3-yl]ethanoic acid], greater than 80 µM.

Regarding `CCCCCn1c(N)c(-c2nc3ccccc3o2)c2c([N+](=O)[O-])nn(C)c(=O)c21` [2-amino-1-amyl-3-(1,3-benzoxazol-2-yl)-6-methyl-4-nitro-pyrrolo[2,3-d]pyridazin-7-one], the IC50 is greater than 80 µM. Regarding `O=C(NN=Cc1ccc(F)cc1)c1cc(-c2ccc3c(c2)OCO3)n[nH]1` [3-(1,3-benzodioxol-5-yl)-N-[(E)-(4-fluorobenzylidene)amino]-1H-pyrazole-5-carboxamide], the IC50 is greater than 80 µM.

Regarding `COc1ccc(NC(=S)N(CCC(C)C)C2CCN(C(C)C)CC2)cc1Cl` [3-(3-chloranyl-4-methoxy-phenyl)-1-(3-methylbutyl)-1-(1-propan-2-ylpiperidin-4-yl)thiourea], the concentration for half-maximal inhibition (IC50) came out at 10.6 µM. The same measure, in the same setting: in the case of `COc1ccc(-n2nc(C(=O)NCC(=O)Nc3ccccn3)c3ccccc3c2=O)cc1Cl` [3-(3-chloranyl-4-methoxy-phenyl)-4-oxidanylidene-N-[2-oxidanylidene-2-(pyridin-2-ylamino)ethyl]phthalazine-1-carboxamide] it was greater than 80 µM; in that of `Cc1ccc(Cn2cc(C=O)c(-c3ccc(C)cc3)n2)cc1` [3-(4-methylphenyl)-1-[(4-methylphenyl)methyl]-4-pyrazolecarboxaldehyde], greater than 80 µM. As to `Cc1c(CCC(=O)O)c(=O)oc2c(C)c(OCc3ccccc3Cl)ccc12` [3-[7-[(2-chlorophenyl)methoxy]-4,8-dimethyl-2-oxochromen-3-yl]propanoic acid], the IC50 stood at 6.4 µM. This counts as single-digit micromolar. On the same count and under the same terms, the same measure for `Cc1c(CCC(=O)O)c(=O)oc2c(C)c(OCc3cc4c(cc3Cl)OCO4)ccc12` [3-[7-[(6-chloranyl-1,3-benzodioxol-5-yl)methoxy]-4,8-dimethyl-2-oxidanylidene-chromen-3-yl]propanoic acid]: greater than 80 µM; for `O=C(CSc1nc(-c2ccc(F)cc2)nc2c1Cc1ccccc1O2)Nc1cccc(C(=O)O)c1` [3-[({[2-(4-fluorophenyl)-5H-chromeno[2,3-d]pyrimidin-4-yl]thio}acetyl)amino]benzoic acid]: 1.55 µM.

The same assay, now with this note: inactive by the depositor's call.
In the case of `O=S(=O)(O)c1cc(O)c2cc(Nc3ccccc3)ccc2c1`, half-maximal inhibition (IC50) was put at 24.1 µM. Same read-out and setting: the same measure for `O=S(=O)(Nc1ccc(Cl)cc1)c1ccc(N2CCOCC2)c(NC(=S)NCCN2CCOCC2)c1`: 21.3 µM; for `O=C(CCc1ccccc1)NNC(=O)c1ccc(NC(=O)c2ccccc2)cc1`: 37.9 µM; for `COc1cccc(Nc2nn3c(=O)c4ccccc4nc3s2)c1`: 58.2 µM. In turn, `CCC(CC)c1nnc(NC(=O)c2cc(C(=O)OC)cc([N+](=O)[O-])c2)s1` displayed an IC50 of 21.8 µM. Same read-out and setting: in the case of `CN1CCC2(CC1)N=C(c1ccc(F)cc1)C(=S)N2` it was 71.7 µM; in that of `Cc1ccc(N=C(S)N(CCN(C)C)Cc2cccs2)c(C)c1`, 56 µM. `S=C(NCCCN1CCOCC1)Nc1ccc(-c2nc3ccccc3[nH]2)cc1` came in with an IC50 of 79.6 µM.

On to `NC(=O)C1(N2CCCCC2)CCN(C(=S)Nc2ccc(S(N)(=O)=O)cc2)CC1` [1'-({[4-(aminosulfonyl)phenyl]amino}carbonothioyl)-1,4'-bipiperidine-4'-carboxamide], for which half-maximal inhibition (IC50) was put at 25.9 µM.

`S=C(NCCc1ccccc1)Nc1c(Cl)cccc1Cl` [1-(2,6-dichlorophenyl)-3-(2-phenylethyl)thiourea] gave an IC50 of 41.2 µM. In turn, `COc1ccc(NC(=S)NCCCN2CCCC2)cc1Cl` [1-(3-chloro-4-methoxyphenyl)-3-[3-(1-pyrrolidinyl)propyl]thiourea] registered a half-inhibitory concentration (IC50) of 31.1 µM. The same measure, in the same setting: the same measure for `CN1CCN(C(=S)c2ccc(Br)cc2)CC1` [1-[(4-bromophenyl)carbonothioyl]-4-methylpiperazine]: 42 µM; for `Cc1nn(C)cc1C=NNC(=S)Nc1ccccc1` [1-[(E)-(1,3-dimethylpyrazol-4-yl)methylideneamino]-3-phenyl-thiourea]: 57.9 µM. On to `CCCN(CC(=O)Nc1ccccc1OC)C(=O)Cc1ccc2c(c1)CCC2` [2-(2,3-dihydro-1H-inden-5-yl)-N-[2-[(2-methoxyphenyl)amino]-2-oxidanylidene-ethyl]-N-propyl-ethanamide], for which the IC50 worked out at 57 µM.

As to `CCCc1cc(=O)oc2cc(OCC(=O)Nc3ccc(S(N)(=O)=O)cc3)ccc12` [2-(2-oxo-4-propylchromen-7-yl)oxy-N-(4-sulfamoylphenyl)acetamide], the 50% inhibitory concentration (IC50) worked out at 30.6 µM. On the same count and under the same terms, in the case of `Cc1c(CC(=O)O)c(=O)oc2c(C)c(OCc3ccccc3Br)ccc12` [2-[7-[(2-bromophenyl)methoxy]-4,8-dimethyl-2-oxochromen-3-yl]acetic acid] it was 26.3 µM. On the same count and under the same terms, the same measure for `Cc1ccc(-n2c(C)nc3oc4ccccc4c(=O)c3c2=O)cc1` [2-methyl-3-(4-methylphenyl)[1]benzopyrano[2,3-d]pyrimidine-4,5-dione]: 76.5 µM. Same read-out and setting: in the case of `O=C(N/N=C/c1cccnc1)c1ccc(NC(=O)c2cccc(Cl)c2)cc1` [3-chloro-N-[4-[oxo-[(2E)-2-(3-pyridinylmethylidene)hydrazinyl]methyl]phenyl]benzamide] it was 45.6 µM.

For the origin of these results see BindingDB's records for doi:10.7270/Q2KH0KWR (Burnham Center For Chemical Genomics, 2012).
